The target of data set [1] is T1, GRPR (Homo sapiens, UniProt P30550). The arrangement: generated using GRPR-expressing PC-3 cells; endogenous in cells; method as in PMID 21552898, PMID 7809097. The following applies: Schally group; cited from earlier work.
Data set [2] has as its target T1, GRPR. The experiment in a line: Fluorometric calcium release assay in PC-3 cells. Format: cell-based. More on the design: generated using GRPR-expressing PC-3 cells; endogenous in cells; host or cells: PC-3 cells. The settings on record: 50 nM ligand. As for the experimental part: Following previously published procedures, 5 × 10^4 PC-3 cells in 100 μL of growth media were seeded per well in a 96-well, clear bottom black plate 24 h before the assay. The loading buffer (100 μL/well), containing a calcium-sensitive dye (FLIPR Calcium 6 assay kit), was added to the 96-well plate. After incubation at 37 °C for 2 h, the plate was placed in a FlexStation 3 microplate reader (Molecular Devices). […] Agonistic/antagonistic properties were determined using the relative fluorescent unit (RFU = max–min).

The next data set concerns PC-3 tumor xenografts. The experiment in a line: PET/CT imaging of PC-3 tumor xenografts. The following applies: 1 h post-injection. Format: in vivo, NRG mice. The method, then: PET/CT imaging experiments were performed on a Siemens (Knoxville, TN) Inveon micro PET/CT scanner. The tumor-bearing mouse was injected with 3–5 MBq of ^68Ga-labeled tracer through a lateral caudal tail vein under anesthesia, followed by recovery and roaming freely in its cage during the uptake period. At 50 min post-injection, a 10 min CT scan was conducted first for the localization and attenuation correction after segmentation for reconstructing the PET images, followed by a 10 min static PET imaging acquisition.

The conditions of data set [3]: pH 7.4. As for the experimental part:
Briefly, aliquots (2 μL) of the ^68Ga-labeled peptides were added into a 15 mL falcon tube containing 3 mL of n-octanol and 3 mL of 0.1 mol/L DPBS (pH 7.4). The mixture was vortexed for 1 min and then centrifuged at 3000 rpm for 15 min. Samples of the n-octanol (1 mL) and buffer (1 mL) layers were collected and measured in a gamma counter. LogD7.4 was calculated using the following equation: LogD7.4 = log10 [(counts in the n-octanol phase)/(counts in the buffer phase)].

The conditions of data set [4]: 15 min post-injection. As for the experimental part: PET/CT imaging, biodistribution, and in vivo stability studies were conducted on male NOD.Cg-Rag1^tm1Mom Il2rg^tm1Wjl/SzJ (NRG) mice, following previously published procedures. The experiments were conducted according to the guidelines established by the Canadian Council on Animal Care and approved by the Animal Ethics Committee of the University of British Columbia (protocol number A20-0113, approved on 30 September 2020). […] Mice were used for PET/CT imaging and biodistribution studies when the tumor grew to 5–8 mm in diameter over around 4 weeks.
At 15 min post-injection, mice were sedated and euthanized, and urine and blood were collected. The plasma was extracted from whole blood by adding CH3CN (500 μL), vortex, centrifugation, and the separation of supernatant. The plasma and urine samples were analyzed via radio-HPLC using the conditions for quality control of these ^68Ga-labeled radioligands (Table S3).

Data set [5] is described as follows: Ex vivo biodistribution in PC-3 tumor-bearing mice. The arrangement: species or system NRG mice. The following applies: mouse, 1 h post-injection; for tissue to tissue ratio at 1 h: male, NRG (NOD.Cg-Rag1^tm1Mom Il2rg^tm1Wjl/SzJ), iv, total radioactivity; for tissue uptake at 1 h: intravenous. The method, then:
For biodistribution studies, the mice were injected with the radiotracer (2–4 MBq) via the tail vein as described above. For blocking, the mice were co-injected with 100 μg of [D-Phe^6,Leu-NHEt^13,des-Met^14]Bombesin(6–14). At 1 h post-injection, the mice were anesthetized through isoflurane inhalation and euthanized through CO2 inhalation. Blood was collected through a cardiac puncture, and organs/tissues of interest were collected, weighed, and counted using a Perkin Elmer (Waltham, MA, USA) Wizard2 2480 automatic gamma counter.

The target of data set [6] is T1, GRPR. The experiment in a line: In vitro competition binding assay with [125I-Tyr4]Bombesin on PC-3 cells. The arrangement: generated using GRPR-expressing PC-3 cells; endogenous in cells; host or cells: PC-3 cells. The following applies: displacement of [125I-Tyr4]Bombesin, n = 3. As for the experimental part:
PC-3 cells were seeded in 24-well, poly-D-lysine plates at 2 × 10^5 cells/well 24–48 h prior to the assay. […] Then, the plates were incubated for about 60 min at 37 °C. […] Data were analyzed using nonlinear regression (one binding site model for competition assay) with GraphPad (San Diego, CA, USA) Prism 8.4.3 software.
(In general: In a radioligand displacement assay an active substance lowers the binding of a labelled ligand.)

As usually defined, the logD is lipophilicity at a set pH, counting ionised and neutral species. Low values mean lower lipophilicity, high ones higher lipophilicity. As a reminder, the Ki is the dissociation constant of the complex between target and ligand, obtained from inhibition or displacement. A higher Ki goes with lower affinity.

Read-outs that look alike come from different tables or passages of the source.

T1 sequence (P30550 whole entry): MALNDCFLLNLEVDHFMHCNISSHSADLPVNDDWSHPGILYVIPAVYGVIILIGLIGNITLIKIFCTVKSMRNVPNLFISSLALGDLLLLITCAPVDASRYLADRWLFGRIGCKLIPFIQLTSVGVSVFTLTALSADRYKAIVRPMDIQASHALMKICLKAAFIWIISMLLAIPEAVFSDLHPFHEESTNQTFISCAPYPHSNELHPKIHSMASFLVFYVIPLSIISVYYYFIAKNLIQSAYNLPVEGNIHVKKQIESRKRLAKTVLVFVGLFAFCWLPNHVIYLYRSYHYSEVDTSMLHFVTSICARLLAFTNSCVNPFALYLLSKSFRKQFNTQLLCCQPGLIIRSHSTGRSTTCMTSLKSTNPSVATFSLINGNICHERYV

Regarding “D-Phe-[Leu^13ψThz^14]Bombesin(7–14) [RC-3950-II]”, the “binding affinity to GRPR” value on GRPR [1] is on record as “picomolar binding affinity”.

bombesin: the “Ca2+ efflux (RFU = max–min)” value on GRPR [2] is recorded as 754 ± 38.3 RFUs.

Regarding `Nc1ncnc2c1ncn2[C@@H]1O[C@H](COP(=O)(O)OP(=O)(O)OP(=O)(O)O)[C@@H](O)[C@H]1O` [ATP, adenosine triphosphate], the “Ca2+ efflux (RFU = max–min)” value on GRPR [2] is listed as 334 ± 39.0 RFUs.

For the compound `CC(C)C[C@H](NC(=O)[C@H](Cc1c[nH]cn1)NC(=O)CNC(=O)[C@@H](NC(=O)[C@H](C)NC(=O)[C@H](Cc1c[nH]c2ccccc12)NC(=O)[C@H](CCC(N)=O)NC(=O)[C@@H](Cc1ccc2ccccc2c1)NC(=O)CN1CCC(NC(=O)CN2CCN(CC(=O)O)CCN(CC(=O)O)CCN(CC(=O)O)CC2)CC1)C(C)C)C(=O)N1CSC[C@H]1C(N)=O` [[^68Ga]Ga-TacBOMB3, metal not drawn], the “visualization of PC-3 tumor xenografts in PET images” value in the data set with PC-3 tumor xenografts is “clearly visualized”. In addition, the excretion pathway result with PC-3 tumor xenografts (PET images) is “primarily excreted via the renal pathway”. Also, the logD in data set [3] is -2.55 ± 0.03. Moreover, in data set [4] (mouse plasma, n = 3), the “intact fraction in plasma” value came out at 27.3 ± 4.84%. Further, the “intact tracer in urine” value in data set [4] (mouse urine) is “no intact”. In addition, the tissue to tissue ratio at 1 h came out at 29.9 ± 8.5 in data set [5] (tumor and bone, n = 4, read-out: Tumor/bone uptake ratio); 4.93 ± 0.84 in data set [5] (tumor and intestines, n = 4, read-out: Tumor/intestines uptake ratio); 1.34 ± 0.58 in data set [5] (tumor and kidney, n = 4, read-out: Tumor/kidney uptake ratio); 23.5 ± 9.61 in data set [5] (tumor and muscle, n = 4, read-out: Tumor/muscle uptake ratio); 2.21 ± 0.4 in data set [5] (tumor and pancreas, n = 4, read-out: Tumor/pancreas uptake ratio); 5.61 ± 2.33 in data set [5] (tumor and whole blood, n = 4, read-out: Tumor/blood uptake ratio). Moreover, the tissue uptake at 1 h in data set [5] (PC-3 tumor, n = 4, read-out: PC-3 tumor uptake) is 5.09 ± 0.54 %ID/g; in data set [5] (blood, n = 4, read-out: Blood uptake) it was 1.06 ± 0.51 %ID/g; in data set [5] (brain, muscle, fat, bone, liver, stomach, heart, and spleen, read-out: Uptake values for the brain, muscle, fat, bone, liver, stomach, heart, and spleen), less than 1 %ID/g; in data set [5] (fat, n = 4, read-out: Fat uptake), 0.19 ± 0.18 %ID/g; in data set [5] (heart, n = 4, read-out: Heart uptake) it was 0.35 ± 0.18 %ID/g; in data set [5] (intestines, n = 4, read-out: Intestines uptake), 1.06 ± 0.26 %ID/g. For the same compound, the tissue uptake at 1 h was found to be 4.61 ± 2.72 %ID/g in data set [5] (kidneys, n = 4, read-out: Kidneys uptake); 0.65 ± 0.19 %ID/g in data set [5] (liver, n = 4, read-out: Liver uptake); 1.63 ± 0.75 %ID/g in data set [5] (lungs, n = 4, read-out: Lungs uptake); 0.24 ± 0.12 %ID/g in data set [5] (muscle, n = 4, read-out: Muscle uptake); 2.41 ± 0.72 %ID/g in data set [5] (pancreas, n = 4, read-out: Pancreas uptake); 0.5 ± 0.32 %ID/g in data set [5] (spleen, n = 4, read-out: Spleen uptake). Besides, the tissue uptake at 1 h in data set [5] (stomach, n = 4, read-out: Stomach uptake) was determined as 0.82 ± 0.37 %ID/g; in data set [5] (testes, n = 4, read-out: Testes uptake) it was 0.37 ± 0.06 %ID/g.

With “Ga-TacBOMB2: nonradioactive Ga-complexed standard of TacBOMB2 (FQWAVGHLX; Ga-DOTA-Pip (4-amino-(1-carboxymethyl)piperidine) on the N-terminus; residue 1 is D-Phe; X9 = Thz (thiazoline/thiazolidine-4-carboxylic acid, named thiazoline in the text) replacing Met14, normal Leu1)”, the Ki in the data set with GRPR [6] worked out at 7.62 ± 0.19 nM.

With “[D-Phe^6,Leu-NHEt^13,des-Met^14]Bombesin(6–14)”, on GRPR [2], the “Ca2+ efflux (RFU = max–min)” value is listed as 25.3 ± 1.92 RFUs.

For “D-Tpi-[Leu^13ψThz^14]Bombesin(7–14) [RC-3910-II]”, the “binding affinity to GRPR” value at GRPR [1] is listed as “picomolar binding affinity”.

As to “D-2-Nal-[Leu^13ψThz^14]Bombesin(7–14) [RC-3965-II]”, the “binding affinity to GRPR” value on GRPR [1] was “picomolar binding affinity”.

(Values after PMC9962964, “^68Ga-Labeled [Thz^14]Bombesin(7–14) Analogs: Promising GRPR-Targeting Agonist PET Tracers with Low Pancreas Uptake” (Molecules, 2023).)
